“And” between values parts separate entries of the source, which are not always exact repeats. Equal values may be shown once. Toxic doses and inconclusive results are not listed. Cut-off read from the data, not from the text of the source: active = T/C of 150% or more; inactive = T/C below 125%.
Test system: L1210 leukemia ip in BDF1 mice, survival T/C
Assay: NCI In Vivo Anticancer Drug Screen. Data for tumor model L1210 Leukemia (intraperitoneal) in B6D2F1 (BDF1) mice
Conditions: endpoint: mean survival time, higher = longer survival
How it was run: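 Tumor cells were implanted, animals were treated, and survival was followed. The result divides the treated measurement by the vehicle-control measurement.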

[1] = dose: 100.0 mg/kg/injection, schedule: Q04DX003 (ip), vehicle: Klucel (hydroxypropylcellulose) (HPC)
[2] = dose: 200.0 mg/kg/injection, schedule: Q04DX003 (ip), vehicle: Klucel (hydroxypropylcellulose) (HPC)
[3] = dose: 400.0 mg/kg/injection, schedule: Q04DX003 (ip), vehicle: Klucel (hydroxypropylcellulose) (HPC)
[4] = dose: 100.0 mg/kg/injection, schedule: Q01DX009 (ip), vehicle: Klucel (hydroxypropylcellulose) (HPC)
[5] = dose: 200.0 mg/kg/injection, schedule: Q01DX009 (ip), vehicle: Klucel (hydroxypropylcellulose) (HPC)
[6] = dose: 400.0 mg/kg/injection, schedule: Q01DX009 (ip), vehicle: Klucel (hydroxypropylcellulose) (HPC)
[7] = dose: 75.0 mg/kg/injection, schedule: Q04DX003 (ip), vehicle: saline
[8] = dose: 150.0 mg/kg/injection, schedule: Q04DX003 (ip), vehicle: saline
[9] = dose: 100.0 mg/kg/injection, schedule: Q04DX002 (ip), vehicle: saline
[10] = dose: 100.0 mg/kg/injection, schedule: Q01DX001 (ip), vehicle: carboxymethylcellulose (CMC)
[11] = dose: 200.0 mg/kg/injection, schedule: Q01DX001 (ip), vehicle: carboxymethylcellulose (CMC)

Measured: T/C

Cc1cc(Cl)c(OC(=O)Nc2ccccc2F)cc1C
inactive: dose: 25.0 mg/kg/injection, schedule: Q01DX009 (ip), vehicle: saline with Tween-80 106 % of control | dose: 50.0 mg/kg/injection, schedule: Q01DX009 (ip), vehicle: saline with Tween-80 114 % of control | dose: 100.0 mg/kg/injection, schedule: Q01DX009 (ip), vehicle: saline with Tween-80 103 % of control and 105 % of control

O=P1(CCc2ccc(Br)cc2)CC(Br)C(Br)C1 (stereo not drawn)
inactive: [1] 104 % of control | [2] 106 % of control | [3] 96 % of control

Clc1nc2ccccc2s1
inactive: dose: 100.0 mg/kg/injection, schedule: Q01DX009 (ip), vehicle: alcohol 88 % of control | dose: 200.0 mg/kg/injection, schedule: Q01DX009 (ip), vehicle: alcohol 89 % of control

Cc1ccc([N+](=O)[O-])cc1N1CCNC1=O
inactive: [4] 104 % of control | [1] 102 % of control | [5] 102 % of control | [2] 98 % of control | [6] 100 % of control | [3] 101 % of control

Nc1ccc2nc(NCCO)c3ccccc3c2c1
inactive: [4] 107 % of control | [1] 104 % of control | [5] 114 % of control | [2] 104 % of control | [6] 88 % of control | [3] 104 % of control

O=S(=O)(O)c1ccncc1
inactive: dose: 100.0 mg/kg/injection, schedule: Q01DX001 (ip), vehicle: saline 96 % of control | dose: 100.0 mg/kg/injection, schedule: Q01DX009 (ip), vehicle: saline 96 % of control | dose: 200.0 mg/kg/injection, schedule: Q01DX001 (ip), vehicle: saline 91 % of control | dose: 200.0 mg/kg/injection, schedule: Q01DX009 (ip), vehicle: saline 87 % of control | dose: 400.0 mg/kg/injection, schedule: Q01DX001 (ip), vehicle: saline 88 % of control | dose: 400.0 mg/kg/injection, schedule: Q01DX009 (ip), vehicle: saline 96 % of control

COC(=O)c1cccc2c1ccc1ccccc12
inactive: dose: 37.5 mg/kg/injection, schedule: Q04DX003 (ip), vehicle: saline 92 % of control | dose: 50.0 mg/kg/injection, schedule: Q01DX009 (ip), vehicle: Klucel (hydroxypropylcellulose) (HPC) 111 % of control | [7] 94 % of control | [4] 105 % of control | [8] 89 % of control | [5] 96 % of control

N#C/C(=C\c1cccc([N+](=O)[O-])c1)c1ccccc1
inactive: dose: 100.0 mg/kg/injection, schedule: Q01DX001 (ip), vehicle: Klucel (hydroxypropylcellulose) (HPC) 97 % of control | dose: 200.0 mg/kg/injection, schedule: Q01DX001 (ip), vehicle: Klucel (hydroxypropylcellulose) (HPC) 101 % of control | dose: 400.0 mg/kg/injection, schedule: Q01DX001 (ip), vehicle: Klucel (hydroxypropylcellulose) (HPC) 94 % of control

CNCCCNCC1C(c2ccccc2)C1c1ccccc1 (stereo not drawn)
inactive: dose: 25.0 mg/kg/injection, schedule: Q04DX002 (ip), vehicle: saline 100 % of control and 90 % of control | dose: 50.0 mg/kg/injection, schedule: Q04DX002 (ip), vehicle: saline 103 % of control | [9] 86 % of control and 97 % of control

CC(Br)C(=O)c1cccc2ccccc12 (stereo not drawn)
inactive: dose: 25.0 mg/kg/injection, schedule: Q04DX003 (ip), vehicle: Klucel (hydroxypropylcellulose) (HPC) 90 % of control | dose: 50.0 mg/kg/injection, schedule: Q04DX003 (ip), vehicle: Klucel (hydroxypropylcellulose) (HPC) 90 % of control | [1] 97 % of control and 98 % of control

COc1ccccc1-n1c(O)c(N=Nc2ccccc2C)c(=O)n(-c2ccc(I)cc2)c1=S
inactive: dose: 37.5 mg/kg/injection, schedule: Q01DX001 (ip), vehicle: Klucel (hydroxypropylcellulose) (HPC) 89 % of control | dose: 75.0 mg/kg/injection, schedule: Q01DX001 (ip), vehicle: Klucel (hydroxypropylcellulose) (HPC) 92 % of control | dose: 150.0 mg/kg/injection, schedule: Q01DX001 (ip), vehicle: Klucel (hydroxypropylcellulose) (HPC) 97 % of control

NCCCC(=S)S
inactive: [9] 95 % of control | dose: 200.0 mg/kg/injection, schedule: Q04DX002 (ip), vehicle: saline 96 % of control and 103 % of control | dose: 400.0 mg/kg/injection, schedule: Q04DX002 (ip), vehicle: saline 96 % of control and 116 % of control

CCOC(CN1CCOCC1)c1ccccc1 (stereo not drawn)
inactive: dose: 50.0 mg/kg/injection, schedule: Q01DX001 (ip), vehicle: carboxymethylcellulose (CMC) 100 % of control | dose: 50.0 mg/kg/injection, schedule: Q01DX009 (ip), vehicle: carboxymethylcellulose (CMC) 93 % of control and 92 % of control | dose: 50.0 mg/kg/injection, schedule: Q04DX003 (ip), vehicle: carboxymethylcellulose (CMC) 102 % of control | [10] 99 % of control | dose: 100.0 mg/kg/injection, schedule: Q01DX009 (ip), vehicle: carboxymethylcellulose (CMC) 109 % of control and 91 % of control | dose: 100.0 mg/kg/injection, schedule: Q04DX002 (ip), vehicle: carboxymethylcellulose (CMC) 103 % of control and 105 % of control | dose: 100.0 mg/kg/injection, schedule: Q04DX003 (ip), vehicle: carboxymethylcellulose (CMC) 107 % of control | [11] 100 % of control | dose: 200.0 mg/kg/injection, schedule: Q01DX009 (ip), vehicle: carboxymethylcellulose (CMC) 106 % of control and 88 % of control | dose: 200.0 mg/kg/injection, schedule: Q04DX002 (ip), vehicle: carboxymethylcellulose (CMC) 106 % of control and 113 % of control | dose: 200.0 mg/kg/injection, schedule: Q04DX003 (ip), vehicle: carboxymethylcellulose (CMC) 104 % of control

CCCCC(=O)N/N=C\c1cccc([N+](=O)[O-])c1
inactive: [10] 92 % of control | [11] 92 % of control | dose: 400.0 mg/kg/injection, schedule: Q01DX001 (ip), vehicle: carboxymethylcellulose (CMC) 95 % of control

CC1CC(C)(C)NC(=O)O1 (stereo not drawn)
inactive: dose: 25.0 mg/kg/injection, schedule: Q01DX009 (ip), vehicle: other 93 % of control | dose: 25.0 mg/kg/injection, schedule: Q04DX003 (ip), vehicle: other 90 % of control | dose: 50.0 mg/kg/injection, schedule: Q01DX009 (ip), vehicle: other 92 % of control | dose: 50.0 mg/kg/injection, schedule: Q04DX003 (ip), vehicle: other 89 % of control | dose: 100.0 mg/kg/injection, schedule: Q01DX001 (ip), vehicle: other 103 % of control | dose: 100.0 mg/kg/injection, schedule: Q01DX009 (ip), vehicle: other 92 % of control | dose: 100.0 mg/kg/injection, schedule: Q04DX003 (ip), vehicle: other 90 % of control

Cc1c(C)c(O)c(SC(CC(=O)O)C(=O)O)c(C)c1O (stereo not drawn)
inactive: dose: 100.0 mg/kg/injection, schedule: Q04DX002 (ip), vehicle: Klucel (hydroxypropylcellulose) (HPC) 100 % of control | [1] 103 % of control | dose: 200.0 mg/kg/injection, schedule: Q04DX002 (ip), vehicle: Klucel (hydroxypropylcellulose) (HPC) 103 % of control | [2] 103 % of control | dose: 400.0 mg/kg/injection, schedule: Q04DX002 (ip), vehicle: Klucel (hydroxypropylcellulose) (HPC) 97 % of control | [3] 90 % of control

COc1ccc(Cl)cc1Cl
inactive: dose: 75.0 mg/kg/injection, schedule: Q01DX009 (ip), vehicle: saline 90 % of control | [7] 100 % of control | dose: 150.0 mg/kg/injection, schedule: Q01DX009 (ip), vehicle: saline 86 % of control | [8] 95 % of control | dose: 300.0 mg/kg/injection, schedule: Q01DX009 (ip), vehicle: saline 92 % of control | dose: 300.0 mg/kg/injection, schedule: Q04DX003 (ip), vehicle: saline 90 % of control

CC(=O)C[n+]1ccccc1Br
inactive: dose: 62.0 mg/kg/injection, schedule: Q01DX015 (ip), vehicle: water 87 % of control | dose: 125.0 mg/kg/injection, schedule: Q01DX015 (ip), vehicle: water 100 % of control

CN=C(N)Nc1ccc(C(=O)O)cc1
inactive: dose: 100.0 mg/kg/injection, schedule: Q01DX009 (ip), vehicle: water 102 % of control | dose: 100.0 mg/kg/injection, schedule: Q04DX003 (ip), vehicle: water 106 % of control | dose: 200.0 mg/kg/injection, schedule: Q01DX009 (ip), vehicle: water 107 % of control | dose: 200.0 mg/kg/injection, schedule: Q04DX003 (ip), vehicle: water 89 % of control | dose: 400.0 mg/kg/injection, schedule: Q01DX009 (ip), vehicle: water 106 % of control | dose: 400.0 mg/kg/injection, schedule: Q04DX003 (ip), vehicle: water 91 % of control
